The results in this text go back to patent publication US9233964B2, “Sulfamide piperazine derivatives as protein tyrosine kinase inhibitors and pharmaceutical use therof” (LEO PHARMA A/S, priority 2011, dated 2016).

Assay type in all cases: biochemical
One assay has as its target T1, JAK1 (Homo sapiens, UniProt P23458).
T1 construct: JAK1 (aa 850-1154) and TYK2 (aa 871-1187) are expressed with an N-terminally fused GST-tag; GST (N); purchased Carna Biosciences, Inc; host or cells: baculovirus expression system
The assay is described as follows: JAK kinase assay (HTRF, phosphorylation of synthetic peptide), JAK1. The conditions noted are these: catalytic domain, ATP at Km (7 μM); read-out: JAK1 kinase inhibitory activity (EC50). In outline:
(§1)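 Catalytic-domain human JAK1 (GST-tagged, aa 850-1154) or His-tagged JAK2, baculovirus-expressed, phosphorylated 1 µM biotinylated TK peptide at Km ATP (JAK1 7 µM, 10 mM MgCl2, 50 nM SEB; JAK2 4 µM, 5 mM MgCl2) in pH 7.0 Hepes, 20-30 min RT. EDTA stop; overnight streptavidin-XL665/cryptate HTRF read.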

A further assay addresses T2, JAK2 (Homo sapiens, UniProt O60674).
T2 construct: All four purified enzymes contain only the catalytic domain; His (N); purchased Carna Biosciences, Inc; host or cells: baculovirus expression system
The assay is described as follows: JAK kinase assay (HTRF, phosphorylation of synthetic peptide), JAK2. The settings on record: catalytic domain, ATP at Km (4 μM); read-out: JAK2 kinase inhibitory activity (EC50). In outline: as §1
(In TR-FRET formats the signal depends on donor and acceptor labels being close together.)

The target in a further assay is T3, JAK3 (Homo sapiens, UniProt P52333).
T3 construct: All four purified enzymes contain only the catalytic domain; His (N); purchased Carna Biosciences, Inc; host or cells: baculovirus expression system
Briefly: JAK kinase assay (HTRF, phosphorylation of synthetic peptide), JAK3. The conditions noted are these: catalytic domain, ATP at Km (2 μM); read-out: JAK3 kinase inhibitory activity (EC50).

In the next assay the target is T4, TYK2 (Homo sapiens, UniProt P29597).
T4 construct: JAK1 (aa 850-1154) and TYK2 (aa 871-1187) are expressed with an N-terminally fused GST-tag; GST (N); purchased Carna Biosciences, Inc; host or cells: baculovirus expression system
T4 sequence (P29597 871-1187): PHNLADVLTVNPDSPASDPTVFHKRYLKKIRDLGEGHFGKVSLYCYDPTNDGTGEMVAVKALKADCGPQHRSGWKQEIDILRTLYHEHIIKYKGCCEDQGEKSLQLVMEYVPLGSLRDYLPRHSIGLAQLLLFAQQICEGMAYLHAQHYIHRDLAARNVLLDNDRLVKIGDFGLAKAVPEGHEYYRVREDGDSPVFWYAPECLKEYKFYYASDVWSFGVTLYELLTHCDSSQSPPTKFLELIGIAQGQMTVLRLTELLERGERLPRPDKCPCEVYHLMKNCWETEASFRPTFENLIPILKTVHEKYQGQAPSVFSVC
The assay is described as follows: JAK kinase assay (HTRF, phosphorylation of synthetic peptide), TYK2. The conditions noted are these: catalytic domain, ATP at Km (13 μM); read-out: TYK2 kinase inhibitory activity (EC50). In outline: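 1 µM biotinylated TK peptide at Km ATP in pH 7.0 Hepes, 20-30 min RT. EDTA stop; overnight streptavidin-XL665/cryptate HTRF read.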

T3 sequence (P52333 822-1111 limits assumed): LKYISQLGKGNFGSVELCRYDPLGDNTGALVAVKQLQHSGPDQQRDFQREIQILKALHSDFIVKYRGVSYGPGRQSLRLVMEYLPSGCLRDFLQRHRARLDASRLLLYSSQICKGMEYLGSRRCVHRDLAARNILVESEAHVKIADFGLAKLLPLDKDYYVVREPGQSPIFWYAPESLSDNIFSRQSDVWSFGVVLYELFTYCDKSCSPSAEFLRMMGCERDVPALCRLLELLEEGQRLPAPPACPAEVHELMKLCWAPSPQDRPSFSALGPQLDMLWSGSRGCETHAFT
T2 sequence (O60674 849-1124 limits assumed): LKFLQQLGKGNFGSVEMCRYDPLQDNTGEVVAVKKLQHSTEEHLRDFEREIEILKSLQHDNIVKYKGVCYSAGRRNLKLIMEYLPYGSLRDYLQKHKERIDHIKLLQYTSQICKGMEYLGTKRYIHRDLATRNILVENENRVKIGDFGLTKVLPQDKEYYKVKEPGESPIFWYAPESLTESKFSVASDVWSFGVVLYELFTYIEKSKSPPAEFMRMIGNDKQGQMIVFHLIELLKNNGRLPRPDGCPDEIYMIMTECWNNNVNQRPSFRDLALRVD
T1 sequence (P23458 850-1154): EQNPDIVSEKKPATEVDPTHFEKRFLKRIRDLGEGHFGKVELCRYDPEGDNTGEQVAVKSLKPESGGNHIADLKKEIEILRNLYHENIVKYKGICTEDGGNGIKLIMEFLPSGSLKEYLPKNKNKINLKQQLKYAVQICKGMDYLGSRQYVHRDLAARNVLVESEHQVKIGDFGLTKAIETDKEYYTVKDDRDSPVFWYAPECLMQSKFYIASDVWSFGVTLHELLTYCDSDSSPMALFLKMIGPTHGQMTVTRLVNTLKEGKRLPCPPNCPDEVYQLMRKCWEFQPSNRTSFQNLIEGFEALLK

The EC50 is the concentration at which the effect is half-maximal. Turning to `CN(C[C@H]1CCCN1S(C)(=O)=O)S(=O)(=O)N1CCN(c2ncnc3[nH]ccc23)CC12CC2` [Example 181, N-methyl-N-[[(2R)-1-methylsulfonylpyrrolidin-2-yl]methyl]-5-(7H-pyrrolo[2,3-d]pyrimidin-4-yl)-5,8-diazaspiro[2.5]octane-8-sulfonamide], the EC50 at JAK1, at JAK2, at JAK3 and on TYK2 was less than 100 nM throughout.

As to `CN(C[C@H]1CCCN1S(=O)(=O)CCCC#N)S(=O)(=O)N1CCN(c2ncnc3[nH]ccc23)CC12CC2` [Example 182, N-[[(2R)-1-(3-cyanopropylsulfonyl)pyrrolidin-2-yl]methyl]-N-methyl-5-(7H-pyrrolo[2,3-d]pyrimidin-4-yl)-5,8-diazaspiro[2.5]octane-8-sulfonamide], the EC50 at JAK1, at JAK2, at JAK3 and at TYK2 was less than 100 nM in each case.

As for `CN(C[C@@H]1CCC(=O)N1)S(=O)(=O)N1CCN(c2ncnc3[nH]ccc23)CC12CC2` [Example 183, N-methyl-N-[[(2S)-5-oxopyrrolidin-2-yl]methyl]-5-(7H-pyrrolo[2,3-d]pyrimidin-4-yl)-5,8-diazaspiro[2.5]octane-8-sulfonamide], the EC50 on JAK1, at JAK2, on JAK3 and at TYK2 was less than 100 nM each time.

In the case of `CN(C[C@H]1CCC(=O)N1)S(=O)(=O)N1CCN(c2ncnc3[nH]ccc23)CC12CC2` [Example 184, N-methyl-N-[[(2R)-5-oxopyrrolidin-2-yl]methyl]-5-(7H-pyrrolo[2,3-d]pyrimidin-4-yl)-5,8-diazaspiro[2.5]octane-8-sulfonamide], the half-maximal effective concentration (EC50) at JAK1, at JAK2, at JAK3 and at TYK2 was less than 100 nM in each case.

For `CN(C[C@H]1CCCN1C(=O)CO)S(=O)(=O)N1CCN(c2ncnc3[nH]ccc23)CC12CC2` [Example 185, N-[[(2R)-1-(2-hydroxyacetyl)pyrrolidin-2-yl]methyl]-N-methyl-5-(7H-pyrrolo[2,3-d]pyrimidin-4-yl)-5,8-diazaspiro[2.5]octane-8-sulfonamide], the EC50 on JAK1, at JAK2, on JAK3 and on TYK2 was less than 100 nM each time.

With `CN(C[C@H]1CCCN1C(=O)C(O)CO)S(=O)(=O)N1CCN(c2ncnc3[nH]ccc23)CC12CC2` (stereo partly drawn) [Example 186, N-[[(2R)-1-(2,3-dihydroxypropanoyl)pyrrolidin-2-yl]methyl]-N-methyl-5-(7H-pyrrolo[2,3-d]pyrimidin-4-yl)-5,8-diazaspiro[2.5]octane-8-sulfonamide], the concentration giving a half-maximal response (EC50) on JAK1, at JAK2, at JAK3 and on TYK2 was less than 100 nM in each case.

`CN(C[C@H]1CCCN1C(=O)CCC#N)S(=O)(=O)N1CCN(c2ncnc3[nH]ccc23)CC12CC2` [Example 187, N-[[(2R)-1-(3-cyanopropanoyl)pyrrolidin-2-yl]methyl]-N-methyl-5-(7H-pyrrolo[2,3-d]pyrimidin-4-yl)-5,8-diazaspiro[2.5]octane-8-sulfonamide]: the EC50 on JAK1 is less than 100 nM; at JAK2 it was less than 100 nM; on JAK3, 100 to 500 nM; on TYK2, 100 to 500 nM.

Regarding `CN(C[C@H]1CCCN1C=O)S(=O)(=O)N1CCN(c2ncnc3[nH]ccc23)CC12CC2` [Example 188, N-[[(2R)-1-formylpyrrolidin-2-yl]methyl]-N-methyl-5-(7H-pyrrolo[2,3-d]pyrimidin-4-yl)-5,8-diazaspiro[2.5]octane-8-sulfonamide], the EC50 on JAK1 was less than 100 nM; at JAK2, less than 100 nM; at JAK3 it was less than 100 nM; on TYK2 it was 100 to 500 nM.

Take `CN(C[C@H]1CCCN1C(=O)CC#N)S(=O)(=O)N1CCN(c2ncnc3[nH]ccc23)CC12CC2` [Example 189, N-[[(2R)-1-(2-cyanoacetyl)pyrrolidin-2-yl]methyl]-N-methyl-5-(7H-pyrrolo[2,3-d]pyrimidin-4-yl)-5,8-diazaspiro[2.5]octane-8-sulfonamide]: the concentration giving a half-maximal response (EC50) is less than 100 nM on JAK1, less than 100 nM at JAK2, less than 100 nM at JAK3 and 100 to 500 nM at TYK2.

Consider `CN(C[C@H]1CCCN1C(=O)CCO)S(=O)(=O)N1CCN(c2ncnc3[nH]ccc23)CC12CC2` [Example 190, N-[[(2R)-1-(3-hydroxypropanoyl)pyrrolidin-2-yl]methyl]-N-methyl-5-(7H-pyrrolo[2,3-d]pyrimidin-4-yl)-5,8-diazaspiro[2.5]octane-8-sulfonamide], for which the 50% effective concentration (EC50) at JAK1 was less than 100 nM; on JAK2 it was less than 100 nM; on JAK3 it was 100 to 500 nM; at TYK2 it was 100 to 500 nM.

Regarding `CN(C[C@@H]1CCCN1C=O)S(=O)(=O)N1CCN(c2ncnc3[nH]ccc23)CC12CC2` [Example 191, N-[[(2S)-1-formylpyrrolidin-2-yl]methyl]-N-methyl-5-(7H-pyrrolo[2,3-d]pyrimidin-4-yl)-5,8-diazaspiro[2.5]octane-8-sulfonamide], the EC50 on JAK1 is less than 100 nM; at JAK2, less than 100 nM; on JAK3 it was less than 100 nM; at TYK2, 100 to 500 nM.

As to `CN(C[C@@H]1CCCN1C(=O)CO)S(=O)(=O)N1CCN(c2ncnc3[nH]ccc23)CC12CC2` [Example 192, N-[[(2S)-1-(2-hydroxyacetyl)pyrrolidin-2-yl]methyl]-N-methyl-5-(7H-pyrrolo[2,3-d]pyrimidin-4-yl)-5,8-diazaspiro[2.5]octane-8-sulfonamide], the EC50 at JAK1, on JAK2, on JAK3 and at TYK2 was less than 100 nM throughout.

Consider `CN(C[C@@H]1CCCN1C(=O)CCO)S(=O)(=O)N1CCN(c2ncnc3[nH]ccc23)CC12CC2` [Example 193, N-[[(2S)-1-(3-hydroxypropanoyl)pyrrolidin-2-yl]methyl]-N-methyl-5-(7H-pyrrolo[2,3-d]pyrimidin-4-yl)-5,8-diazaspiro[2.5]octane-8-sulfonamide], for which the 50% effective concentration (EC50) at JAK1 was less than 100 nM; on JAK2, less than 100 nM; at JAK3, less than 100 nM; at TYK2 it was 100 to 500 nM.

On to `CN(C[C@@H]1CCCN1S(C)(=O)=O)S(=O)(=O)N1CCN(c2ncnc3[nH]ccc23)CC12CC2` [Example 194, N-methyl-N-[[(2S)-1-methylsulfonylpyrrolidin-2-yl]methyl]-5-(7H-pyrrolo[2,3-d]pyrimidin-4-yl)-5,8-diazaspiro[2.5]octane-8-sulfonamide], for which the half-maximal effective concentration (EC50) on JAK1 is less than 100 nM; at JAK2, less than 100 nM; at JAK3, less than 100 nM; on TYK2 it was 100 to 500 nM.

With `COc1ccc(CNS(=O)(=O)N2CCN(c3ncnc4[nH]ccc34)CC23CC3)cc1` [Example 195, N-[(4-methoxyphenyl)methyl]-5-(7H-pyrrolo[2,3-d]pyrimidin-4-yl)-5,8-diazaspiro[2.5]octane-8-sulfonamide], the EC50 was 100 to 500 nM on JAK1, 100 to 500 nM at JAK2, greater than 500 nM at JAK3 and greater than 500 nM on TYK2.

In the case of `CC(C)(C)OC(=O)N(CCCS(C)(=O)=O)S(=O)(=O)N1CCN(c2ncnc3[nH]ccc23)CC12CC2` [Example 196, tert-butyl N-(3-methylsulfonylpropyl)-N-[[5-(7H-pyrrolo[2,3-d]pyrimidin-4-yl)-5,8-diazaspiro[2.5]octan-8-yl]sulfonyl]carbamate], the concentration for a half-maximal effect (EC50) at JAK1 was 100 to 500 nM; on JAK2, 100 to 500 nM; at JAK3 it was greater than 500 nM; at TYK2, greater than 500 nM.

As to `NS(=O)(=O)N1CCN(c2ncnc3[nH]ccc23)CC12CC2` [Int 1], the half-maximal effective concentration (EC50) on JAK1 was less than 100 nM; at JAK2 it was less than 100 nM; on JAK3 it was less than 100 nM; on TYK2, 100 to 500 nM.

As to `CNS(=O)(=O)N1CCN(c2ncnc3[nH]ccc23)CC12CC2` [Int 3], the EC50 at JAK1 is less than 100 nM; at JAK2 it was less than 100 nM; at JAK3, less than 100 nM; at TYK2, 100 to 500 nM.

Take `O=S(=O)(NCCc1ccccc1)N1CCN(c2ncnc3[nH]ccc23)CC12CC2` [Int 5]: the EC50 on JAK1 is less than 100 nM; at JAK2 it was less than 100 nM; on JAK3 it was 100 to 500 nM; on TYK2, greater than 500 nM.

Take `O=S(=O)(N1CCN(c2ncnc3[nH]ccc23)CC12CC2)n1ccnc1` [Int 15]: the EC50 on JAK1 was 100 to 500 nM; at JAK2, less than 100 nM; on JAK3 it was greater than 500 nM; on TYK2, greater than 500 nM.

On to `CN(CC1CCNC1)S(=O)(=O)N1CCN(c2ncnc3[nH]ccc23)CC12CC2` (stereo not drawn) [Int 25], for which the 50% effective concentration (EC50) at JAK1 is less than 100 nM; on JAK2 it was less than 100 nM; at JAK3, 100 to 500 nM; on TYK2, greater than 500 nM.
